Data reported in US9108944B2, “Androgen receptor modulators and uses thereof” (ARAGON PHARMACEUTICALS, INC., priority 2010, dated 2015).

Tests used:
AR-VP16 [1] = molecular target: T1, AR-VP16 (Homo sapiens, UniProt P10275); experiment: AR-VP16 DNA Binding Assay, agonist mode (HepG2 cells); type: cell-based; conditions: Emax >20x DMSO control = agonist
T1 sequence (P10275 560-920 limits assumed): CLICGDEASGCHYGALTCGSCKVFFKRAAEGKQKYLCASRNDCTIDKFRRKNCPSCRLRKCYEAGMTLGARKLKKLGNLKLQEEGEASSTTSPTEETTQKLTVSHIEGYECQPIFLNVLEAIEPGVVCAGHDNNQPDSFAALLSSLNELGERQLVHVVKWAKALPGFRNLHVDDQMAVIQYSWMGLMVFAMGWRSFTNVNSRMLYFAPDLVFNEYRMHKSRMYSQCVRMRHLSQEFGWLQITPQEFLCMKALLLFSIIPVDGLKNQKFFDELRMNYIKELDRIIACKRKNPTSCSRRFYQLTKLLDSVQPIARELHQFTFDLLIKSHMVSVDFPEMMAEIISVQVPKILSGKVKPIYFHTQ

AR-VP16 [2] = molecular target: T1, AR-VP16; experiment: AR-VP16 DNA Binding Assay, antagonist mode (HepG2 cells, 0.1 nM R1881); type: cell-based
Method in brief: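 HepG2 cells transiently transfected with AR-VP16 (Lipofectin), incubated overnight, then treated with compound in RPMI with charcoal-stripped serum. Antagonist mode adds R1881 at 0.1 nM final. Cells lysed after 48 h incubation for read-out.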

N#Cc1ncc(N2C(=O)C3(CCC3)N(c3cccc(F)c3)C2=S)cc1C(F)(F)F [Compound 27, 5-(5-(3-Fluorophenyl)-8-oxo-6-thioxo-5,7-diazaspiro[3.4]octan-7-yl)-3-(trifluoromethyl)picolinonitrile]
ARVP16 DNA Binding Assay (Agonist mode): Agonist? (AR-VP16 [1]): No (Agonist defined as a compound whose Emax in the ARVP16 DNA Binding Assay (Agonist mode) is >20x DMSO control)
IC50 (AR-VP16 [2]): < 1000 nM

CN1CCN(CCNC(=O)c2cc(N3C(=S)N(c4cnc(C#N)c(C(F)(F)F)c4)C(=O)C34CCC4)ccc2F)CC1 [Compound 254, 5-(7-(6-Cyano-5-(trifluoromethyl)pyridin-3-yl)-8-oxo-6-thioxo-5,7-diazaspiro[3.4]octan-5-yl)-2-fluoro-N-(2-(4-methylpiperazin-1-yl)ethyl)benzamide]
ARVP16 DNA Binding Assay (Agonist mode): Agonist? (AR-VP16 [1]): No (Agonist defined as a compound whose Emax in the ARVP16 DNA Binding Assay (Agonist mode) is >20x DMSO control)
IC50 (AR-VP16 [2]): > 1000 nM

N#Cc1ccc(N2C(=S)N(c3cnc(C#N)c(C(F)(F)F)c3)C(=O)C23CCC3)cc1 [Compound 12, 5-(5-(4-Cyanophenyl)-8-oxo-6-thioxo-5,7-diazaspiro[3.4]octan-7-yl)-3-(trifluoromethyl)picolinonitrile]
ARVP16 DNA Binding Assay (Agonist mode): Agonist? (AR-VP16 [1]): No (Agonist defined as a compound whose Emax in the ARVP16 DNA Binding Assay (Agonist mode) is >20x DMSO control)
IC50 (AR-VP16 [2]): < 1000 nM

CN1CCN(c2ccc(N3C(=S)N(c4cnc(C#N)c(C(F)(F)F)c4)C(=O)C34CCC4)cc2)CC1 [Compound 90, 5-(5-(4-(4-Methylpiperazin-1-yl)phenyl)-8-oxo-6-thioxo-5,7-diazaspiro[3.4]octan-7-yl)-3-(trifluoromethyl)picolinonitrile]
ARVP16 DNA Binding Assay (Agonist mode): Agonist? (AR-VP16 [1]): No (Agonist defined as a compound whose Emax in the ARVP16 DNA Binding Assay (Agonist mode) is >20x DMSO control)
IC50 (AR-VP16 [2]): > 1000 nM

N#Cc1ncc(N2C(=O)C3(CCC3)N(c3ccc(F)c(OCCc4cccnc4)c3)C2=S)cc1C(F)(F)F [Compound 159, 5-(5-(4-Fluoro-3-(2-(pyridin-3-yl)ethoxy)phenyl)-8-oxo-6-thioxo-5,7-diazaspiro[3.4]octan-7-yl)-3-(trifluoromethyl)picolinonitrile]
ARVP16 DNA Binding Assay (Agonist mode): Agonist? (AR-VP16 [1]): No (Agonist defined as a compound whose Emax in the ARVP16 DNA Binding Assay (Agonist mode) is >20x DMSO control)
IC50 (AR-VP16 [2]): > 1000 nM

N#Cc1ncc(N2C(=O)C3(CCC3)N(c3ccc(OCCN4CCCCC4)cc3F)C2=S)cc1C(F)(F)F [Compound 187, 5-(5-(2-Fluoro-4-(2-(piperidin-1-yl)ethoxy)phenyl)-8-oxo-6-thioxo-5,7-diazaspiro[3.4]octan-7-yl)-3-(trifluoromethyl)picolinonitrile]
ARVP16 DNA Binding Assay (Agonist mode): Agonist? (AR-VP16 [1]): No (Agonist defined as a compound whose Emax in the ARVP16 DNA Binding Assay (Agonist mode) is >20x DMSO control)
IC50 (AR-VP16 [2]): < 1000 nM

N#Cc1ncc(N2C(=O)C3(CCC3)N(c3ccc(F)c(OCCc4ccccc4)c3)C2=S)cc1C(F)(F)F [Compound 162, 5-(5-(4-Fluoro-3-phenethoxyphenyl)-8-oxo-6-thioxo-5,7-diazaspiro[3.4]octan-7-yl)-3-(trifluoromethyl)picolinonitrile]
ARVP16 DNA Binding Assay (Agonist mode): Agonist? (AR-VP16 [1]): No (Agonist defined as a compound whose Emax in the ARVP16 DNA Binding Assay (Agonist mode) is >20x DMSO control)
IC50 (AR-VP16 [2]): > 1000 nM

N#Cc1ncc(N2C(=O)C3(CCC3)N(c3ccc(C(=O)Nc4ccccn4)c(F)c3)C2=S)cc1C(F)(F)F [Compound 261, 4-(7-(6-Cyano-5-(trifluoromethyl)pyridin-3-yl)-8-oxo-6-thioxo-5,7-diazaspiro[3.4]octan-5-yl)-2-fluoro-N-(pyridin-2-yl)benzamide]
ARVP16 DNA Binding Assay (Agonist mode): Agonist? (AR-VP16 [1]): No (Agonist defined as a compound whose Emax in the ARVP16 DNA Binding Assay (Agonist mode) is >20x DMSO control)
IC50 (AR-VP16 [2]): < 1000 nM

N#Cc1ncc(N2C(=O)C3(CCC3)N(c3ccccc3F)C2=S)cc1C(F)(F)F [Compound 26, 5-(5-(2-Fluorophenyl)-8-oxo-6-thioxo-5,7-diazaspiro[3.4]octan-7-yl)-3-(trifluoromethyl)picolinonitrile]
ARVP16 DNA Binding Assay (Agonist mode): Agonist? (AR-VP16 [1]): Yes (Agonist defined as a compound whose Emax in the ARVP16 DNA Binding Assay (Agonist mode) is >20x DMSO control)
IC50 (AR-VP16 [2]): < 1000 nM

N#Cc1ncc(N2C(=O)C3(CCC3)N(c3ccc(OCCN4CCS(=O)(=O)CC4)c(F)c3)C2=S)cc1C(F)(F)F [Compound 186, 5-(5-(4-(2-(1,1-Dioxidothiomorpholino)ethoxy)-3-fluorophenyl)-8-oxo-6-thioxo-5,7-diazaspiro[3.4]octan-7-yl)-3-(trifluoromethyl)picolinonitrile]
ARVP16 DNA Binding Assay (Agonist mode): Agonist? (AR-VP16 [1]): Yes (Agonist defined as a compound whose Emax in the ARVP16 DNA Binding Assay (Agonist mode) is >20x DMSO control)
IC50 (AR-VP16 [2]): < 1000 nM

Cc1cc(N2C(=O)C3(CCC3)N(c3ccc(O)cc3)C2=S)cnc1C#N [Compound 77, 5-(5-(4-hydroxyphenyl)-8-oxo-6-thioxo-5,7-diazaspiro[3.4]octan-7-yl)-3-methylpicolinonitrile]
ARVP16 DNA Binding Assay (Agonist mode): Agonist? (AR-VP16 [1]): No (Agonist defined as a compound whose Emax in the ARVP16 DNA Binding Assay (Agonist mode) is >20x DMSO control)
IC50 (AR-VP16 [2]): > 1000 nM

Cc1ccc(N2C(=S)N(c3cnc(-c4cccnc4)c(C(F)(F)F)c3)C(=O)C23CCC3)cc1 [Compound 61, 6-Thioxo-5-(p-tolyl)-7-(3-(trifluoromethyl)-[2,3′-bipyridin]-5-yl)-5,7-diazaspiro[3.4]octan-8-one]
ARVP16 DNA Binding Assay (Agonist mode): Agonist? (AR-VP16 [1]): No (Agonist defined as a compound whose Emax in the ARVP16 DNA Binding Assay (Agonist mode) is >20x DMSO control)
IC50 (AR-VP16 [2]): > 1000 nM

Cc1cc(N2C(=O)C3(CCC3)N(c3ccc(C(=O)Nc4ccccc4Cl)c(F)c3)C2=S)cnc1C#N [Compound 294, N-(2-Chlorophenyl)-4-(7-(6-cyano-5-methylpyridin-3-yl)-8-oxo-6-thioxo-5,7-diazaspiro[3.4]octan-5-yl)-2-fluorobenzamide]
ARVP16 DNA Binding Assay (Agonist mode): Agonist? (AR-VP16 [1]): No (Agonist defined as a compound whose Emax in the ARVP16 DNA Binding Assay (Agonist mode) is >20x DMSO control)
IC50 (AR-VP16 [2]): < 1000 nM

N#Cc1ncc(N2C(=O)C3(CCC3)N(c3ccc(C4CCOCC4)cc3)C2=S)cc1C(F)(F)F [Compound 115, 5-(8-Oxo-5-(4-(tetrahydro-2H-pyran-4-yl)phenyl)-6-thioxo-5,7-diazaspiro[3.4]octan-7-yl)-3-(trifluoromethyl)picolinonitrile]
ARVP16 DNA Binding Assay (Agonist mode): Agonist? (AR-VP16 [1]): No (Agonist defined as a compound whose Emax in the ARVP16 DNA Binding Assay (Agonist mode) is >20x DMSO control)
IC50 (AR-VP16 [2]): < 1000 nM

N#Cc1ncc(N2C(=O)C3(CCC3)N(c3cccc(-c4ccccc4)c3)C2=S)cc1C(F)(F)F [Compound 14, 5-(5-([1,1′-Biphenyl]-3-yl)-8-oxo-6-thioxo-5,7-diazaspiro[3.4]octan-7-yl)-3-(trifluoromethyl)picolinonitrile]
ARVP16 DNA Binding Assay (Agonist mode): Agonist? (AR-VP16 [1]): No (Agonist defined as a compound whose Emax in the ARVP16 DNA Binding Assay (Agonist mode) is >20x DMSO control)
IC50 (AR-VP16 [2]): > 1000 nM

Cc1ccc(N2C(=S)N(c3cnc(C#N)c(C)c3)C(=O)C23CCC3)cc1 [Compound 31, 3-Methyl-5-(8-oxo-6-thioxo-5-(p-tolyl)-5,7-diazpiro[3.4]octan-7-yl)picolinonitrile]
ARVP16 DNA Binding Assay (Agonist mode): Agonist? (AR-VP16 [1]): No (Agonist defined as a compound whose Emax in the ARVP16 DNA Binding Assay (Agonist mode) is >20x DMSO control)
IC50 (AR-VP16 [2]): < 1000 nM

N#Cc1ncc(N2C(=O)C3(CCC3)N(c3ccc(C(F)(F)F)cc3)C2=S)cc1C(F)(F)F [Compound 46, 5-(8-Oxo-6-thioxo-5-(4-(trifluoromethyl)phenyl)-5,7-diazaspiro[3.4]octan-7-yl)-3-(trifluoromethyl)picolinonitrile]
ARVP16 DNA Binding Assay (Agonist mode): Agonist? (AR-VP16 [1]): No (Agonist defined as a compound whose Emax in the ARVP16 DNA Binding Assay (Agonist mode) is >20x DMSO control)
IC50 (AR-VP16 [2]): < 1000 nM

CCOC(=O)c1cc(N2C(=S)N(c3cnc(C#N)c(C(F)(F)F)c3)C(=O)C23CCC3)ccc1F [Compound 8, Ethyl 5-(7-(6-cyano-5-(trifluoromethyl)pyridin-3-yl)-8-oxo-6-thioxo-5,7-diazaspiro[3.4]octan-5-yl)-2-fluorobenzoate]
ARVP16 DNA Binding Assay (Agonist mode): Agonist? (AR-VP16 [1]): No (Agonist defined as a compound whose Emax in the ARVP16 DNA Binding Assay (Agonist mode) is >20x DMSO control)
IC50 (AR-VP16 [2]): > 1000 nM

Cc1cc(N2C(=O)C3(CCC3)N(c3ccc(OCCc4ccccn4)c(F)c3)C2=S)cnc1C#N [Compound 169, 5-(5-(3-Fluoro-4-(2-(pyridin-2-yl)ethoxy)phenyl)-8-oxo-6-thioxo-5,7-diazaspiro[3.4]octan-7-yl)-3-methylpicolinonitrile]
ARVP16 DNA Binding Assay (Agonist mode): Agonist? (AR-VP16 [1]): No (Agonist defined as a compound whose Emax in the ARVP16 DNA Binding Assay (Agonist mode) is >20x DMSO control)
IC50 (AR-VP16 [2]): < 1000 nM

CC(=O)N1CCC(Oc2ccc(N3C(=S)N(c4cnc(C#N)c(C)c4)C(=O)C34CCC4)cc2)CC1 [Compound 215, 5-(5-(4-((1-acetylpiperidin-4-yl)oxy)phenyl)-8-oxo-6-thioxo-5,7-diazaspiro[3.4]octan-7-yl)-3-methylpicolinonitrile]
ARVP16 DNA Binding Assay (Agonist mode): Agonist? (AR-VP16 [1]): Yes (Agonist defined as a compound whose Emax in the ARVP16 DNA Binding Assay (Agonist mode) is >20x DMSO control)
IC50 (AR-VP16 [2]): < 1000 nM

Cc1cc(N2C(=O)C3(CCC3)N(c3ccc(OCCN4CCN(C)CC4)cc3)C2=S)cnc1C#N [Compound 200, 3-Methyl-5-(5-(4-(2-(4-methylpiperazin-1-yl)ethoxy)phenyl)-8-oxo-6-thioxo-5,7-diazaspiro[3.4]octan-7-yl)picolinonitrile]
ARVP16 DNA Binding Assay (Agonist mode): Agonist? (AR-VP16 [1]): Yes (Agonist defined as a compound whose Emax in the ARVP16 DNA Binding Assay (Agonist mode) is >20x DMSO control)
IC50 (AR-VP16 [2]): < 1000 nM
